Laboratory results from patent US8431113B2, “Polymer conjugates” (Biocompatibles UK Limited, priority 2002, dated 2013).
Converted amounts (≈) assume the structure as drawn.

Experiment: Effect of polymer modification on drug solubility: maximum solubility in water at room temperature, compound added step-wise
Assay type: physicochemical
Conditions: unmodified base drug
Description: The polymer-modified compound was added step-wise to water to determine the maximum solubility at room temperature.

O=C(O)c1ccccc1O [Salicylic Acid, salicylic acid]
Solubility of Drug: 16 mM | solubility (water): 2200 µg/mL (≈ 15.9 mM)
